Target: human VMAT2 (Homo sapiens (Human), UniProt Q05940)
Assay: VMAT2 radioligand binding, 3H-dihydrotetrabenazine competition on human platelet homogenate
Conditions: 10 nM 3H-dihydrotetrabenazine, human platelet homogenate, 25° C., 90 minutes; read-out: VMAT2 Ki
Procedure: Examples of techniques for determining the capability of a compound to inhibit VMAT2 are provided below. The procedure was adapted from that described previously (see, e.g., Near, (1986), Mol. Pharmacol. 30: 252-57; Teng, et al., J. Neurochem. 71, 258-65, 1998). Homogenates from human platelets were prepared by homogenization and then washed by centrifugation as described previously (see, e.g., Hoare et al., (2003) Peptides 24:1881-97).
The human VMAT2 Ki values for the compounds listed in Table 15A and Table 15B were determined using the following procedures. Compound dilution series in DMSO were generated from either powder stocks by hand, or from DMSO stocks using serial dilution on a Vantage (Hamilton), or direct dilution using an Echo 655 (Beckman). In a total volume of 0.145 to 0.150 mL in low-binding 96-well plates (Corning #3605), twelve concentrations of test compound were competed against 10 nM ^3H-dihydrotetrabenezine (American Radiolabeled Chemicals) on human platelet homogenate (30 μg membrane protein per well) in VMAT2 binding buffer (Dulbecco's phosphate buffered saline, 1 mM EDTA, pH 7.4). Following incubation at 25° C. for 90 minutes, bound radioligand was collected by rapid filtration onto either GF/B or GF/C glass fiber filters, pretreated with 0.100 polyethylenimine, using either a Unifilter-96 Harvester (PerkinElmer) or Microlab Star (Hamilton). Following harvesting the filter plates were washed with 0.8 mL VMAT2 binding buffer, and bound radioligand was quantified by scintillation counting using a Topcount NXT or Microplate Counter Microbeta (PerkinElmer).

Chain of human VMAT2 (Q05940 whole entry): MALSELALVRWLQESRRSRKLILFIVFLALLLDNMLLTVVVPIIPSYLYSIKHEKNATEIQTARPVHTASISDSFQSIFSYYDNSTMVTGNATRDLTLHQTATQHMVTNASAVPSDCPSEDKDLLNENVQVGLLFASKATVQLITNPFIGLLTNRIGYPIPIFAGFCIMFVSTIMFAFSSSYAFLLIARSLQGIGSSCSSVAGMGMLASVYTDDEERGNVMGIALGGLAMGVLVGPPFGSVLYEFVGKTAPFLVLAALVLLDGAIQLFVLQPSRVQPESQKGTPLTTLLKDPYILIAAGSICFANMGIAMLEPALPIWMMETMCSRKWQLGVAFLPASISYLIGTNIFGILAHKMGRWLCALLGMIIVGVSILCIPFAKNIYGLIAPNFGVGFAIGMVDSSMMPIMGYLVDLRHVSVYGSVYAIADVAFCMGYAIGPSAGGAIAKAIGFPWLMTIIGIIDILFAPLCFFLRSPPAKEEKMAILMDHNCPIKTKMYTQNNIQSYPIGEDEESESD

SMILES | Ki [nM]
COc1cc2c(cc1OCC(F)F)CCN1C[C@H](CC(C)(C)C)[C@H](O)C[C@@H]21 [Compound 4-2, (2R,3S,11bS)-9-(2,2-difluoroethoxy)-3-(2,2-dimethylpropyl)-10-methoxy-1H,2H,3H,4H,6H,7H,11bH-pyrido[2,1-a]isoquinolin-2-ol] | 467
COc1cc2c(cc1OCC(C)(F)F)CCN1C[C@H](CC(C)(C)C)[C@H](O)C[C@@H]21 [Compound 4-3, (2R,3S,11bS)-9-(2,2-difluoropropoxy)-3-(2,2-dimethylpropyl)-10-methoxy-1H,2H,3H,4H,6H,7H,11bH-pyrido[2,1-a]isoquinolin-2-ol] | 152
COc1cc2c(cc1OCC(F)(F)F)CCN1C[C@H](CC(C)(C)C)[C@H](O)C[C@@H]21 [Compound 4-4, (2R,3S,11bS)-3-(2,2-dimethylpropyl)-10-methoxy-9-(2,2,2-trifluoroethoxy)-1H,2H,3H,4H,6H,7H,11bH-pyrido[2,1-a]isoquinolin-2-ol] | 170
COc1cc2c(cc1OCCC(F)(F)F)CCN1C[C@H](CC(C)(C)C)[C@H](O)C[C@@H]21 [Compound 4-5, (2R,3S,11bS)-3-(2,2-dimethylpropyl)-10-methoxy-9-(3,3,3-trifluoropropoxy)-1H,2H,3H,4H,6H,7H,11bH-pyrido[2,1-a]isoquinolin-2-ol] | 135
COc1cc2c(cc1OCC(F)F)CCN1C[C@H](CC(C)(C)C)[C@@H](O)C[C@@H]21 [Compound 4-6, (2S,3S,11bS)-9-(2,2-difluoroethoxy)-3-(2,2-dimethylpropyl)-10-methoxy-1H,2H,3H,4H,6H,7H,11bH-pyrido[2,1-a]isoquinolin-2-ol] | 860
COc1cc2c(cc1OCC(C)(F)F)CCN1C[C@H](CC(C)(C)C)[C@@H](O)C[C@@H]21 [Compound 4-7, (2S,3S,11bS)-9-(2,2-difluoropropoxy)-3-(2,2-dimethylpropyl)-10-methoxy-1H,2H,3H,4H,6H,7H,11bH-pyrido[2,1-a]isoquinolin-2-ol] | 539
COc1cc2c(cc1OCC(F)(F)F)CCN1C[C@H](CC(C)(C)C)[C@@H](O)C[C@@H]21 [Compound 4-8, (2S,3S,11bS)-3-(2,2-dimethylpropyl)-10-methoxy-9-(2,2,2-trifluoroethoxy)-1H,2H,3H,4H,6H,7H,11bH-pyrido[2,1-a]isoquinolin-2-ol] | 597
COc1cc2c(cc1OCCOC1COC1)CCN1C[C@@H](CC(C)(C)C)[C@H](O)C[C@H]21 [Compound 4-20, (2R,3R,11bR)-3-(2,2-dimethylpropyl)-10-methoxy-9-[2-(oxetan-3-yloxy)ethoxy]-1H,2H,3H,4H,6H,7H,11bH-pyrido[2,1-a]isoquinolin-2-ol] | 336
COc1cc2c(cc1OC[C@@H]1CCO1)CCN1C[C@@H](CC(C)(C)C)[C@H](O)C[C@H]21 [Compound 4-21, (2R,3R,11bR)-3-(2,2-dimethylpropyl)-10-methoxy-9-[(2S)-oxetan-2-ylmethoxy]-1H,2H,3H,4H,6H,7H,11bH-pyrido[2,1-a]isoquinolin-2-ol] | 28
COc1cc2c(cc1OCC(=O)N(C)C)CCN1C[C@@H](CC(C)(C)C)[C@H](O)C[C@H]21 [Compound 4-33, 2-{[(2R,3R,11bR)-3-(2,2-dimethylpropyl)-2-hydroxy-10-methoxy-1H,2H,3H,4H,6H,7H,11bH-pyrido[2,1-a]isoquinolin-9-yl]oxy}-N,N-dimethylacetamide] | > 10000
COc1cc2c(cc1OCCn1ccnc1)CCN1C[C@@H](CC(C)(C)C)[C@H](O)C[C@H]21 [Compound 4-34, (2R,3R,11bR)-3-(2,2-dimethylpropyl)-9-[2-(1H-imidazol-1-yl)ethoxy]-10-methoxy-1H,2H,3H,4H,6H,7H,11bH-pyrido[2,1-a]isoquinolin-2-ol] | > 10000
CNC(=O)COc1cc2c(cc1OC)[C@H]1C[C@@H](O)[C@H](CC(C)(C)C)CN1CC2 [Compound 4-35, 2-{[(2R,3R,11bR)-3-(2,2-dimethylpropyl)-2-hydroxy-10-methoxy-1H,2H,3H,4H,6H,7H,11bH-pyrido[2,1-a]isoquinolin-9-yl]oxy}-N-methylacetamide] | > 10000
COc1cc2c(cc1OCC1CN(C)C1)CCN1C[C@@H](CC(C)(C)C)[C@H](O)C[C@H]21 [Compound 4-37, (2R,3R,11bR)-3-(2,2-dimethylpropyl)-10-methoxy-9-[(1-methylazetidin-3-yl)methoxy]-1H,2H,3H,4H,6H,7H,11bH-pyrido[2,1-a]isoquinolin-2-ol] | > 10000
COc1cc2c(cc1OC(C)C(F)(F)F)CCN1C[C@@H](CC(C)(C)C)[C@H](O)C[C@H]21 (stereo partly drawn) [Compound 4-39, (2R,3R,11bR)-3-(2,2-dimethylpropyl)-10-methoxy-9-[(1,1,1-trifluoropropan-2-yl)oxy]-1H,2H,3H,4H,6H,7H,11bH-pyrido[2,1-a]isoquinolin-2-ol] | 12
COC[C@H](O)COc1cc2c(cc1OC)[C@H]1C[C@@H](O)[C@H](CC(C)(C)C)CN1CC2 [Compound 4-48, (2R,3R,11bR)-3-(2,2-dimethylpropyl)-9-[(2S)-2-hydroxy-3-methoxypropoxy]-10-methoxy-1H,2H,3H,4H,6H,7H,11bH-pyrido[2,1-a]isoquinolin-2-ol] | 313
COc1cc2c(cc1OCC1(C(F)(F)F)CCCC1)CCN1C[C@@H](CC(C)(C)C)[C@H](O)C[C@H]21 [Compound 4-80, (2R,3R,11bR)-3-(2,2-dimethylpropyl)-10-methoxy-9-{[1-(trifluoromethyl)cyclo-pentyl]methoxy}-1H,2H,3H,4H,6H,7H,11bH-pyrido[2,1-a]isoquinolin-2-ol] | 133
COc1cc2c(cc1OCc1ccc(C(F)(F)F)cc1)CCN1C[C@@H](CC(C)(C)C)[C@H](O)C[C@H]21 [Compound 4-81, (2R,3R,11bR)-3-(2,2-dimethylpropyl)-10-methoxy-9-{[4-(trifluoro-methyl)phenyl]methoxy}-1H,2H,3H,4H,6H,7H,11bH-pyrido[2,1-a]isoquinolin-2-ol] | 177
COc1cc2c(cc1OCc1ccc(C#N)cn1)CCN1C[C@@H](CC(C)(C)C)[C@H](O)C[C@H]21 [Compound 4-82, 6-({[(2R,3R,11bR)-3-(2,2-dimethylpropyl)-2-hydroxy-10-methoxy-1H,2H,3H,4H,6H,7H,11bH-pyrido[2,1-a]isoquinolin-9-yl]oxy}methyl)pyridine-3-carbonitrile] | 198
COc1cc2c(cc1OC[C@H](O)CO)CCN1C[C@@H](CC(C)(C)C)[C@H](O)C[C@H]21 [Compound 4-83, (2R)-3-{[(2R,3R,11bR)-3-(2,2-dimethylpropyl)-2-hydroxy-10-methoxy-1H,2H,3H,4H,6H,7H,11bH-pyrido[2,1-a]isoquinolin-9-yl]oxy}propane-1,2-diol] | 207
COc1cc2c(cc1OCC(=O)N(C)CC(F)(F)F)CCN1C[C@@H](CC(C)(C)C)[C@H](O)C[C@H]21 [Compound 4-84, 2-{[(2R,3R,11bR)-3-(2,2-dimethylpropyl)-2-hydroxy-10-methoxy-1H,2H,3H,4H,6H,7H,11bH-pyrido[2,1-a]isoquinolin-9-yl]oxy}-N-methyl-N-(2,2,2-trifluoroethyl)acetamide] | 272
COc1cc2c(cc1OCCCS(C)(=O)=O)CCN1C[C@@H](CC(C)(C)C)[C@H](O)C[C@H]21 [Compound 4-85, (2R,3R,11bR)-3-(2,2-dimethylpropyl)-9-(3-methanesulfonylpropoxy)-10-methoxy-1H,2H,3H,4H,6H,7H,11bH-pyrido[2,1-a]isoquinolin-2-ol] | 276
COc1cc2c(cc1OCS(=O)(=O)N(C)C)CCN1C[C@@H](CC(C)(C)C)[C@H](O)C[C@H]21 [Compound 4-86, 1-{[(2R,3R,11bR)-3-(2,2-dimethylpropyl)-2-hydroxy-10-methoxy-1H,2H,3H,4H,6H,7H,11bH-pyrido[2,1-a]isoquinolin-9-yl]oxy}-N,N-dimethylmethanesulfonamide] | 287
COc1cc2c(cc1OC1CCN(CC(F)(F)F)C1=O)CCN1C[C@@H](CC(C)(C)C)[C@H](O)C[C@H]21 (stereo partly drawn) [Compound 4-87, 3-{[(2R,3R,11bR)-3-(2,2-dimethylpropyl)-2-hydroxy-10-methoxy-1H,2H,3H,4H,6H,7H,11bH-pyrido[2,1-a]isoquinolin-9-yl]oxy}-1-(2,2,2-trifluoroethyl)pyrrolidin-2-one] | 650
COc1cc2c(cc1OCCCO)CCN1C[C@@H](CC(C)(C)C)[C@H](O)C[C@H]21 [Compound 4-89, (2R,3R,11bR)-3-(2,2-dimethylpropyl)-9-(3-hydroxypropoxy)-10-methoxy-1H,2H,3H,4H,6H,7H,11bH-pyrido[2,1-a]isoquinolin-2-ol] | 140
CCC(O)(CC)COc1cc2c(cc1OC)[C@H]1C[C@@H](O)[C@H](CC(C)(C)C)CN1CC2 [Compound 4-93, (2R,3R,11bR)-3-(2,2-dimethylpropyl)-9-(2-ethyl-2-hydroxybutoxy)-10-methoxy-1H,2H,3H,4H,6H,7H,11bH-pyrido[2,1-a]isoquinolin-2-ol] | 281

Reference: patent publication US11718618B2, “Substituted pyrido[2,1-a]isoquinolines as VMAT2 inhibitors” (priority 2021, dated 2023)
